In ChEMBL document CHEMBL4033732, “Identification and synthesis of novel inhibitors of mycobacterium ATP synthase” (Bioorg Med Chem Lett, 2017):
Converted amounts (≈) assume the structure as drawn.

Legend:
[1] = Inhibition of ATP synathse in Mycobacterium smegmatis str. MC2 155 inverted membrane vesicles assessed as ATP formation pre-incubated for 30 mins before NADH-ADP-phosphate buffer cocktail addition and measured after 60 mins by kinase glow reagent based assay; design: species or system Mycolicibacterium smegmatis MC2 155
[2] = tested on: Mycobacterium tuberculosis; assay: Antimicrobial activity against Mycobacterium tuberculosis H37Rv assessed as reduction in microbial growth incubated for 5 days by CLSI protocol based assay; format: functional; conditions: 120 h
HeLa = assay: Cytotoxicity against human HeLa cells incubated for 48 hrs by MTT assay; format: functional
CYP3A4 = CYP3A4 (Homo sapiens, UniProt P08684); assay: Inhibition of CYP3A4 in human liver microsomes at 10 uM; format: ADME
CYP2C19 = CYP2C19 (Homo sapiens, UniProt P33261); assay: Inhibition of CYP2C19 in human liver microsomes at 10 uM; format: ADME
[3] = Solubility in pH 6.8 buffer; format: physicochemical
CYP2D6 = CYP2D6 (Homo sapiens, UniProt P10635); assay: Inhibition of CYP2D6 in human liver microsomes at 10 uM; format: ADME
CYP2C9 = CYP2C9 (Homo sapiens, UniProt P11712); assay: Inhibition of CYP2C9 in human liver microsomes at 10 uM; format: ADME
CYP1A2 = biological target: T1, CYP1A2 (Homo sapiens, UniProt P05177); assay: Inhibition of CYP1A2 in human liver microsomes at 10 uM; format: ADME
T1 sequence (P05177 whole entry): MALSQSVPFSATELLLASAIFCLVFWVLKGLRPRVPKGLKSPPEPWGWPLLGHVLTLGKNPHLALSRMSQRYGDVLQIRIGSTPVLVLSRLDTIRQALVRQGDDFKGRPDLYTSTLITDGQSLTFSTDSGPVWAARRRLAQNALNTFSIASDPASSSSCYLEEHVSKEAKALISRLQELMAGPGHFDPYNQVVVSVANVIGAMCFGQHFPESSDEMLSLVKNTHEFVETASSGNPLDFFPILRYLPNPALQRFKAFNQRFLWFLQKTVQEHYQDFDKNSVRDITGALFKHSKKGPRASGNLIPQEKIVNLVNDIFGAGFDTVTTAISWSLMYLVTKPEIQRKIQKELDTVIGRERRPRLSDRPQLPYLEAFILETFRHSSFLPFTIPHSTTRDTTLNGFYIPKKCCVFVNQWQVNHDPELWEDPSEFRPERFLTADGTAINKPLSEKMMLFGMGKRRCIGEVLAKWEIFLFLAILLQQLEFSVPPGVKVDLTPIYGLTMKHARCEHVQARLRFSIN

[4] = Lipophilicity, log D of the compound; format: physicochemical; conditions: octanol/water

CYP2D6, sequence (P10635 whole entry): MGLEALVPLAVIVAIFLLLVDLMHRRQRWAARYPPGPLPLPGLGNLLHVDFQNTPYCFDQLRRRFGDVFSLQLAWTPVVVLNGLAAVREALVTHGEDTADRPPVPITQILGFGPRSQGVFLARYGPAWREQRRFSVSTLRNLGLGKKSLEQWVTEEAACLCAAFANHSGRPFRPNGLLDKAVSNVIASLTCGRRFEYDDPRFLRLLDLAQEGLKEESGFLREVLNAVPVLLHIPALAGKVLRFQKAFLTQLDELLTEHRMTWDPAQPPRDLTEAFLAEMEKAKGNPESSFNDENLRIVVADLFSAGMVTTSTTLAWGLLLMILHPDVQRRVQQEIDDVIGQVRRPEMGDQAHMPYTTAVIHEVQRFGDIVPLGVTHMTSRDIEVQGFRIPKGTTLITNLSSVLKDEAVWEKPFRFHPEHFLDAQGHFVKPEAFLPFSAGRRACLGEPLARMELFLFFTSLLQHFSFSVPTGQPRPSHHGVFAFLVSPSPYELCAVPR
CYP2C9, sequence (P11712 whole entry): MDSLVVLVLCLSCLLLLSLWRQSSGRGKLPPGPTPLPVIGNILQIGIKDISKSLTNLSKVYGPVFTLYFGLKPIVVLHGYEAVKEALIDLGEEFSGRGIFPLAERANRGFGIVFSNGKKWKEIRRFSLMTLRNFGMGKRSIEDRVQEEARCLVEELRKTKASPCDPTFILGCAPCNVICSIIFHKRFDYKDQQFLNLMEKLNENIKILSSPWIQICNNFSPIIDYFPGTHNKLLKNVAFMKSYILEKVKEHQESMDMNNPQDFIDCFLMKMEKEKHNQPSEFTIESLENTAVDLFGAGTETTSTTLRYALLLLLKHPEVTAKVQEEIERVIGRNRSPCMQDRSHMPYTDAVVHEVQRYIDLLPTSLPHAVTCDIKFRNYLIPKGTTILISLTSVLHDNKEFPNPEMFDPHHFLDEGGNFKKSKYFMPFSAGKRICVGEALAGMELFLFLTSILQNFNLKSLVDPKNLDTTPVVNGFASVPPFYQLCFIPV
CYP3A4, sequence (P08684 whole entry): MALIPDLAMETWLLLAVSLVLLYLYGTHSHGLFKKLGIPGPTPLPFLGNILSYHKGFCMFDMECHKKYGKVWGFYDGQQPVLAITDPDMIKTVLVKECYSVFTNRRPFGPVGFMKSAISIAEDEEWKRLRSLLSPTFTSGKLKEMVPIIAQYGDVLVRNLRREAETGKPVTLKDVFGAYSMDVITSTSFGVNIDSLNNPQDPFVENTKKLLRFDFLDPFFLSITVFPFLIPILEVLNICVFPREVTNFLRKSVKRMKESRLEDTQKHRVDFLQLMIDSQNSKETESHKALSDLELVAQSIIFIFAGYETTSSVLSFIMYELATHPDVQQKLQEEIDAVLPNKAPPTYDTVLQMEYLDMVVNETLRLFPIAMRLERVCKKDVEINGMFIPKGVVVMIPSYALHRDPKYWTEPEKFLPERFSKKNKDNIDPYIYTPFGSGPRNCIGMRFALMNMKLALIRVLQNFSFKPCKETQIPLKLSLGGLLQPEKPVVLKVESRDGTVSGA
CYP2C19, sequence (P33261 whole entry): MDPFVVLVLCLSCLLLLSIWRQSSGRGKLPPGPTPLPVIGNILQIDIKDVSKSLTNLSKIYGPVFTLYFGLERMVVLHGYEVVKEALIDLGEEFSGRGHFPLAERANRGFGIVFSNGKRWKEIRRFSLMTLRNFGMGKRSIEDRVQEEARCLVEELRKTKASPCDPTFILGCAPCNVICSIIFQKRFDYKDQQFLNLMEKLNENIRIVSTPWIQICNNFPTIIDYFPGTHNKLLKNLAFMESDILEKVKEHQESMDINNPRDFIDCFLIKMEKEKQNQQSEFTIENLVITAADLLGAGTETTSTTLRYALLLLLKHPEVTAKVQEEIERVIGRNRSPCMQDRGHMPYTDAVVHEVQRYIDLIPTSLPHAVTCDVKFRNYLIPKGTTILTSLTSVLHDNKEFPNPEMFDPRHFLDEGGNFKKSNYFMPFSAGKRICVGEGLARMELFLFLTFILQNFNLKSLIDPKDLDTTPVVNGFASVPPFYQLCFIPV

O=C(c1cc2n(n1)CCN(Cc1ccc(Cl)c(Cl)c1)C2=O)N1CCCC1
IC50 [1]: > 10000 nM | MIC [2]: > 32 µg/mL

CN1CCN(C(=O)c2cc3n(n2)CCN(Cc2ccc(Cl)c(Cl)c2)C3=O)CC1
IC50 [1]: > 10000 nM | MIC [2]: > 32 µg/mL

CC(c1ccc(Cl)c(Cl)c1)N1CCn2nc(C(=O)N3CCCCC3)cc2C1=O (racemic)
IC50 [1]: > 10000 nM | MIC [2]: > 32 µg/mL

O=C(c1cc2n(c1)CCN(Cc1ccc(Cl)c(Cl)c1)C2=O)N1CCCCC1
GI50 (HeLa): > 100 µg/mL | IC50 [1]: 1550 nM | MIC [2]: 8 µg/mL

O=C(c1cc2n(n1)CCN(Cc1ccc(Cl)c(Cl)c1)C2=O)N1CCCCC1
inhibition at 10 µM (CYP3A4): 16% | inhibition at 10 µM (CYP2C19): 0% | solubility [3]: 7.2 µg/mL (≈ 17.7 µM) | inhibition at 10 µM (CYP2D6): 0% | inhibition at 10 µM (CYP2C9): 11% | inhibition at 10 µM (CYP1A2): 13% | GI50 (HeLa): > 100 µg/mL | IC50 [1]: 270 nM | logD [4]: 3.8 | MIC [2]: 16 µg/mL

CC(C)(C)OC(=O)N1CCN(C(=O)c2cc3n(n2)CCN(Cc2ccc(Cl)c(Cl)c2)C3=O)CC1
IC50 [1]: > 10000 nM | MIC [2]: > 32 µg/mL

O=C(c1cc2c(=O)n(Cc3ccc(Cl)c(Cl)c3)ccn2n1)N1CCCCC1
inhibition at 10 µM (CYP3A4): 0% | inhibition at 10 µM (CYP2C19): 11% | solubility [3]: < 1 µg/mL | inhibition at 10 µM (CYP2D6): 30% | inhibition at 10 µM (CYP2C9): 28% | inhibition at 10 µM (CYP1A2): 0% | GI50 (HeLa): > 100 µg/mL | IC50 [1]: 810 nM | logD [4]: 3.5 | MIC [2]: 4 µg/mL

O=C(c1cc2n(n1)CCN(Cc1cccc(-c3ccccc3)c1)C2=O)N1CCCCC1
GI50 (HeLa): > 100 µg/mL | IC50 [1]: 46 nM | MIC [2]: 8 µg/mL

O=C(c1cc2n(n1)CCN(Cc1cccc(Cl)c1)C2=O)N1CCCCC1
GI50 (HeLa): > 100 µg/mL | IC50 [1]: 110 nM | MIC [2]: 8 µg/mL

O=C(c1cc2n(n1)CCN(c1ccc(Cl)c(Cl)c1)C2=O)N1CCCCC1
IC50 [1]: > 10000 nM | MIC [2]: > 32 µg/mL

CC(C)(C)c1ccc(CN2CCn3nc(C(=O)N4CCCCC4)cc3C2=O)cc1
inhibition at 10 µM (CYP3A4): 0% | inhibition at 10 µM (CYP2C19): 0% | solubility [3]: 54 µg/mL (≈ 137 µM) | inhibition at 10 µM (CYP2D6): 0% | inhibition at 10 µM (CYP2C9): 19% | inhibition at 10 µM (CYP1A2): 17% | GI50 (HeLa): > 100 µg/mL | IC50 [1]: 290 nM | logD [4]: 4 | MIC [2]: 8 µg/mL

O=C(c1cc2n(n1)CCN(Cc1ccccc1Cl)C2=O)N1CCCCC1
IC50 [1]: > 10000 nM | MIC [2]: > 32 µg/mL

CC(C)(C)c1ccc(Cn2ccn3cc(C(=O)N4CCCCC4)nc3c2=O)cc1
inhibition at 10 µM (CYP3A4): 0% | inhibition at 10 µM (CYP2C19): 0% | solubility [3]: 2.7 µg/mL (≈ 6.88 µM) | inhibition at 10 µM (CYP2D6): 6% | inhibition at 10 µM (CYP2C9): 2% | inhibition at 10 µM (CYP1A2): 0% | GI50 (HeLa): > 100 µg/mL | IC50 [1]: 4700 nM | logD [4]: 4.1 | MIC [2]: > 32 µg/mL

O=C(c1cc2n(n1)CCN(CC1CCCCC1)C2=O)N1CCCCC1
IC50 [1]: > 10000 nM | MIC [2]: > 32 µg/mL

CC(C)(C)c1ccc(CN2CC(O)n3nc(C(=O)N4CCCCC4)cc3C2=O)cc1 (stereo not drawn)
inhibition at 10 µM (CYP3A4): 0% | inhibition at 10 µM (CYP2C19): 4% | solubility [3]: 40 µg/mL (≈ 97.4 µM) | inhibition at 10 µM (CYP2D6): 48% | inhibition at 10 µM (CYP2C9): 29% | inhibition at 10 µM (CYP1A2): 0% | GI50 (HeLa): > 100 µg/mL | IC50 [1]: 3300 nM | logD [4]: 3 | MIC [2]: 16 µg/mL

CN1CCn2nc(C(=O)N3CCCCC3)cc2C1=O
IC50 [1]: > 10000 nM | MIC [2]: > 32 µg/mL

O=C(c1cc2n(n1)C(O)CN(Cc1ccc(Cl)c(Cl)c1)C2=O)N1CCCCC1 (stereo not drawn)
inhibition at 10 µM (CYP3A4): 0% | inhibition at 10 µM (CYP2C19): 31% | solubility [3]: < 1 µg/mL | inhibition at 10 µM (CYP2D6): 21% | inhibition at 10 µM (CYP2C9): 24% | inhibition at 10 µM (CYP1A2): 1% | GI50 (HeLa): > 100 µg/mL | IC50 [1]: 1050 nM | logD [4]: 3.1 | MIC [2]: 32 µg/mL

Cc1cccc(CN2CCn3nc(C(=O)N4CCCCC4)cc3C2=O)c1
GI50 (HeLa): > 100 µg/mL | IC50 [1]: 42 nM | MIC [2]: 16 µg/mL

CN(C)CCOc1ccc(NC(=O)c2cc3n(n2)CCN(Cc2ccc(Cl)c(Cl)c2)C3=O)cc1
IC50 [1]: > 10000 nM | MIC [2]: > 32 µg/mL

O=C(c1cc2n(n1)CCN(Cc1ccc(Cl)c(Cl)c1)C2=O)N1CCC(c2ccccc2)CC1
IC50 [1]: > 10000 nM | MIC [2]: > 32 µg/mL

O=C(c1cc2n(n1)CCN(Cc1ccccc1)C2=O)N1CCCCC1
IC50 [1]: > 10000 nM | MIC [2]: > 32 µg/mL

COc1nc2ccc(Br)cc2cc1C(c1ccccc1)C(O)(CCN(C)C)c1cccc2ccccc12 (racemic)
IC50 [1]: 20 nM | MIC [2]: 0.25 µg/mL

Cc1ccc(CN2CCn3nc(C(=O)N4CCCCC4)cc3C2=O)cc1
GI50 (HeLa): > 100 µg/mL | IC50 [1]: 520 nM | MIC [2]: 8 µg/mL

O=C(c1cc2n(n1)CCN(Cc1ccc(Cl)c(Cl)c1)C2=O)N1CCNCC1
IC50 [1]: > 10000 nM | MIC [2]: > 32 µg/mL

CC(C)(C)c1ccc(Cn2ccn3nc(C(=O)N4CCCCC4)cc3c2=O)cc1
inhibition at 10 µM (CYP3A4): 0% | inhibition at 10 µM (CYP2C19): 31% | solubility [3]: < 1 µg/mL | inhibition at 10 µM (CYP2D6): 14% | inhibition at 10 µM (CYP2C9): 46% | inhibition at 10 µM (CYP1A2): 0% | GI50 (HeLa): 32 µg/mL (≈ 81.4 µM) | IC50 [1]: 280 nM | logD [4]: 3.7 | MIC [2]: 2 µg/mL

O=C(c1cn2ccn(Cc3ccc(Cl)c(Cl)c3)c(=O)c2n1)N1CCCCC1
inhibition at 10 µM (CYP3A4): 0% | inhibition at 10 µM (CYP2C19): 6% | solubility [3]: 1.2 µg/mL (≈ 2.96 µM) | inhibition at 10 µM (CYP2D6): 0% | inhibition at 10 µM (CYP2C9): 0% | inhibition at 10 µM (CYP1A2): 3% | GI50 (HeLa): > 100 µg/mL | IC50 [1]: 520 nM | logD [4]: 3.6 | MIC [2]: 4 µg/mL

O=C(c1cc2n(n1)CCN(Cc1ccc(Cl)cc1)C2=O)N1CCCCC1
GI50 (HeLa): > 100 µg/mL | IC50 [1]: 1050 nM | MIC [2]: 8 µg/mL

CC(=O)N1CCN(C(=O)c2cc3n(n2)CCN(Cc2ccc(Cl)c(Cl)c2)C3=O)CC1
IC50 [1]: > 10000 nM | MIC [2]: > 32 µg/mL

O=C(c1cc2n(n1)CCCN(Cc1ccc(Cl)c(Cl)c1)C2=O)N1CCCCC1
inhibition at 10 µM (CYP3A4): 0% | inhibition at 10 µM (CYP2C19): 0% | solubility [3]: 109 µg/mL (≈ 259 µM) | inhibition at 10 µM (CYP2D6): 0% | inhibition at 10 µM (CYP2C9): 13% | inhibition at 10 µM (CYP1A2): 13% | GI50 (HeLa): > 100 µg/mL | IC50 [1]: 290 nM | logD [4]: 2.1 | MIC [2]: 8 µg/mL

CN(C)C(=O)c1cc2n(n1)CCN(Cc1ccc(Cl)c(Cl)c1)C2=O
IC50 [1]: > 10000 nM | MIC [2]: > 32 µg/mL
